Laboratory results: patent publication EP1095025B1, “BENZIMIDAZOLES, PRODUCTION THEREOF AND USE THEREOF AS MEDICAMENTS” (Boehringer Ingelheim Pharma KG, priority 1998, dated 2000)
Where a name gives a salt, the structure may show the parent alone.

test system: humanem Citrat-Plasma; experiment: aPTT time prolongation in plasma (Biomatic B10 coagulometer); format: biochemical; conditions: effective substance concentration, from a dose-response curve, at which the aPTT time is doubled versus control; human citrate plasma, 37°C

**Q.** Which “aPTT-Zeit (ED200 in µM)” value does the source give for `Cl.Cn1c(CNc2ccc(C(=N)N)cc2)nc2cc(C(C)(NCC(=O)O)C(=O)N3CCCC3)ccc21` (stereo not shown) [F, 2-(4-Amidinophenylaminomethyl)-1-methyl-5-[1-(carboxymethylamino)-1-(pyrrolidin-1-yl-carbonyl)-ethyl]-benzimidazol-hydrochlorid] here?
**A.** 0.20 µM

**Q.** `Cc1nc(CCC(=O)O)n(Cc2ccc3c(c2)nc(CNc2ccc(C(=N)N)cc2)n3C)c1C.Cl` [E, 2-(4-Amidinophenylaminomethyl)-1-methyl-5-[2-(2-carboxyethyl)-4,5-dimethyl-imidazol-1-yl-methyl]-benzimidazol-hydrochlorid] was tested. Which “aPTT-Zeit (ED200 in µM)” value did it give?
**A.** 0.29 µM

**Q.** For `Cn1c(CNc2ccc(C(=N)N)cc2)nc2cc(C3(C(=NOCC(=O)O)c4ccccn4)CC3)ccc21` (mixture of isomers) [B, (E/Z)-2-(4-Amidinophenylaminomethyl)-1-methyl-5-[1-[(pyridin-2-yl)-(carboxymethyloxyimino)methylen]cyclopropyl]-benzimidazol-hydrochlorid], which “aPTT-Zeit (ED200 in µM)” value is on record?
**A.** 0.42 µM

**Q.** How did the “aPTT-Zeit (ED200 in µM)” value turn out when `Cl.Cn1c(CNc2ccc(C(=N)N)cc2)nc2cc(C3(C(=O)N4CCCC4CCC(=O)O)CC3)ccc21` (stereo not shown) [D, 2-(4-Amidinophenylaminomethyl)-1-methyl-5-[1-[2-(2-carboxyethyl)-pyrrolidin-1-yl-carbonyl]cyclopropyl]-benzimidazol-hydrochlorid] was run?
**A.** 0.29 µM

**Q.** How did the “aPTT-Zeit (ED200 in µM)” value turn out when `Cl.Cn1c(CNc2ccc(C(=N)N)cc2)nc2cc(C3(C(=O)N4CCCC4)CC3)ccc21` [A, 2-(4-Amidinophenylaminomethyl)-1-methyl-5-[1-(pyrrolidin-1-yl-carbonyl)cyclopropyl]-benzimidazol-hydrochlorid] was run?
**A.** 0.12 µM

**Q.** For `CN(CC(C)(C(=O)N1CCCC1)c1ccc2c(c1)nc(CNc1ccc(C(=N)N)cc1)n2C)C(=O)CC(=O)O` (stereo not shown) [G, 2-(4-Amidinophenylaminomethyl)-1-methyl-5-[1-(N-methylcarboxymethylcarbonylaminomethyl)-1-methyl-1-(pyrrolidin-1-yl-carbonyl)-ethyl]-benzimidazol-dihydrochlorid], which “aPTT-Zeit (ED200 in µM)” value is on record?
**A.** 0.17 µM

**Q.** `Cl.Cn1c(CNc2ccc(C(=N)N)cc2)nc2cc(C(C)(NCCC(=O)O)C(=O)N3CCCC3)ccc21` (stereo not shown) [C, 2-(4-Amidinophenylaminomethyl)-1-methyl-5-[1-(2-carboxyethylamino)-1-(pyrrolidin-1-yl-carbonyl)-ethyl]-benzimidazol-hydrochlorid] was tested. Which “aPTT-Zeit (ED200 in µM)” value did it give?
**A.** 0.31 µM
